Measured values: patent US20080039482A1, “SULFONAMIDO-MACROCYCLES AS TIE2 INHIBITORS AND SALTS THEREOF, PHARMACEUTICAL COMPOSITIONS COMPRISING SAME, METHODS OF PREPARING SAME AND USES OF SAME” (priority 2006, published 2008)

Tests used:
CDK2/CycE = target: T1, CDK2/CycE (Homo sapiens, UniProt P24941); assay: CDK2 HTRF assay (assay 4); format: biochemical; settings: IC50 assay 4/IC50 assay 2
T1 construct: GST; purchased ProQinase GmbH (Freiburg, Germany); host or cells: insect cells (Sf9)
Description: CDK2/CycE-inhibitory activity of compounds of the present invention was quantified employing the CDK2/CycE HTRF assay as described in the following paragraphs.
Recombinant fusion proteins of GST and human CDK2 and of GST and human CycE, expressed in insect cells (Sf9) and purified by Glutathion-Sepharose affinity chromatography, were purchase from ProQinase GmbH (Freiburg, Germany). As substrate for the kinase reaction biotinylated peptide biotin-Ttds-YISPLKSPYKISEG (C-terminus in amid form) was used which can be purchased e.g. form the company JERINI peptide technologies (Berlin, Germany).
CDK2/CycE was incubated for 60 min at 22° C. in the presence of different concentrations of test compounds in 5 μl assay buffer [50 mM Tris/HCl pH 8.0, 10 mM MgCl2, 1.0 mM dithiothreitol, 0.1 mM sodium ortho-vanadate, 10 μM adenosine-tri-phosphate (ATP), 0.75 μM substrate, 0.01% (v/v) Nonidet-P40 (Sigma), 1% (v/v) dimethylsulfoxide]. The concentration of CDK2/CycE was adjusted depending of the activity of the enzyme lot and was chosen appropriate to have the assay in the linear range, typical concentrations were in the range of 1 ng/ml. The reaction was stopped by the addition of 5 μl of a solution of HTRF detection reagents (0.2 μM streptavidine-XLent and 3.4 nM Phospho-(Ser) CDKs Substrate Antibody [product #2324B, Cell Signalling Technology, Danvers, Mass., USA} and 4 nM Prot-A-EuK [Protein A labeled with Europium Cryptate from Cis biointernational, France, product no. 61PRAKLB]) in an aqueous EDTA-solution (100 mM EDTA, 800 mM KF, 0.2% (w/v) bovine serum albumin in 100 mM HEPES/NaOH pH 7.0).

Aurora-C = target: T2, Aurora-C (Homo sapiens, UniProt Q9UQB9); assay: Aurora C HTRF assay (assay 5); format: biochemical; settings: IC50 assay 5/IC50 assay 2
T2 construct: GST; made in house; host or cells: HEK293 (the text adds '(Sf9)', which contradicts this)
T2 sequence (Q9UQB9 1-309): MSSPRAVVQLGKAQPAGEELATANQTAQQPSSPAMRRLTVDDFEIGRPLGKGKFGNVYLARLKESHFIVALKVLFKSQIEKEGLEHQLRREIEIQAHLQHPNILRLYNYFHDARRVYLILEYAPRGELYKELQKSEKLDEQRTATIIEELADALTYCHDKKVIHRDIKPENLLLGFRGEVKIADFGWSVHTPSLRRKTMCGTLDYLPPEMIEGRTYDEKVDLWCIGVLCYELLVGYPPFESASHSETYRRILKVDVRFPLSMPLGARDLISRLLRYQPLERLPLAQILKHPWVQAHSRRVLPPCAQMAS
Description: Assay 5: Aurora C HTRF Assay
Aurora-C inhibitory activity of compounds of the present invention was quantified employing the Aurora-C HTRF assay as described in the following paragraphs.
Recombinant fusion protein of GST and human Aurora-C was expressed in transiently transfected HEK293 cells (Sf9) and purified by Glutathion-Sepharose affinity chromatography. As substrate for the kinase reaction biotinylated peptide biotin-Ttds-FMRLRRLSTKYRT (C-terminus in amid form) was used which can be purchased e.g. form the company JERINI peptide technologies (Berlin, Germany). Aurora-C was incubated for 60 min at 22° C. in the presence of different concentrations of test compounds in 5 μl assay buffer [25 mM Hepes/NaOH pH 7.4, 0.5 mM MnCl2, 2.0 mM dithiothreitol, 0.1 mM sodium ortho-vanadate, 10 μM adenosine-tri-phosphate (ATP), […] substrate, 0.01% (v/v) TritonX-100 (Sigma), 0.05% (w/v) bovine serum albumin, 1% (v/v) dimethylsulfoxide]. The concentration of Aurora-C was adjusted depending of the activity of the enzyme lot and was chosen appropriate to have the assay in the linear range, typical concentrations were in the range of 0.3 nM. The reaction was stopped by the addition of 5 μl of a solution of HTRF detection reagents (0.2 μM streptavidine-XLent and 1.4 nM Anti-Phospho-(Ser/Thr) Akt substrate-Cryptate (Cis biointernational, France, product no. 61P02KAE), a labeled Phospho-(Ser/Thr) Akt substrate antibody [product #9611B, Cell Signalling Technology, Danvers, Mass., USA] labeled with Europium Cryptate, in an aqueous EDTA-solution (40 mM EDTA, 400 mM KF, 0.05% (w/v) bovine serum albumin in 25 mM HEPES/NaOH pH 7.0).
The resulting mixture was incubated 1 h at 22° C. to allow the binding of the biotinylated phosphorylated peptide to the streptavidine-XLent and the Anti-Phospho-(Ser/Thr) Akt substrate-Cryptate. Subsequently the amount of phosphorylated substrate was evaluated by measurement of the resonance energy transfer from the Prot-A-EuK to the streptavidine-XLent. Therefore, the fluorescence emissions at 620 nm and 665 nm after excitation at 350 nm was measured in a HTRF reader, e.g. a Rubystar (BMG Labtechnologies, Offenburg, Germany) or a Viewlux (Perkin-Elmer). The ratio of the emissions at 665 nm and at […] was taken as the measure for the amount of phosphorylated substrate. The data were normalised (enzyme reaction without inhibitor=0% inhibition, all other assay components but no enzyme=100% inhibition) and IC50 values were calculated by a 4 parameter fit using an inhouse software.

Compound	Selectivity vs. CDK2 (CDK2/CycE) [fold]	Selectivity vs. Aurora C (Aurora-C) [fold]
CC(C)(C(=O)Nc1ccc(-c2cnc3nc2NCCCNS(=O)(=O)c2cccc(c2)N3)cc1)c1ccc(Cl)cc1 [Example 13, 2-(4-Chloro-phenyl)-N-[4-(13,13-dioxo-13λ^6-thia-2,4,8,12,19-pentaaza-tricyclo[12.3.1.1^3,7]-nonadeca-1(18),3(19),4,6,14,16-hexaen-6-yl)-phenyl]-isobutyramide]	>20	>20
Cc1ccc(C2(C(=O)Nc3ccc(-c4cnc5nc4NCCCNS(=O)(=O)c4cccc(c4)N5)cc3)CC2)cc1 [Example 1, 1-p-Tolyl-cyclopropane-carboxylic acid [4-(13,13-dioxo-13λ^6-thia-2,4,8,12,19-pentaaza-tricyclo[12.3.1.1^3,7]nonadeca-1(18),3(19),4,6, 14,16-hexaen-6-yl)-phenyl]-amide]	>20	>20
O=C(Nc1ccc(-c2cnc3nc2NCCCNS(=O)(=O)c2cccc(c2)N3)cc1)C1(c2cccc(F)c2)CC1 [Example 8, 1-(3-Fluoro-phenyl)-cyclopropane-carboxylic acid [4-(13,13-dioxo-13λ^6-thia-2,4,8,12,19-pentaaza-tricyclo[12.3.1.1^3,7]nonadeca-1(18),3(19),4,6,14,16-hexaen-6-yl)-phenyl]-amide]	>20	>20
COc1cccc(C2(C(=O)Nc3ccc(-c4cnc5nc4NCCCNS(=O)(=O)c4cccc(c4)N5)cc3)CC2)c1 [Example 3, 1-(3-Methoxy-phenyl)-cyclopropane-carboxylic acid [4-(13,13-dioxo-13λ^6-thia-2,4,8,12,19-pentaaza-tricyclo[12.3.1.1^3,7]nonadeca-1(18),3(19),4,6,14,16-hexaen-6-yl)-phenyl]-amide]	>20	>20
O=C(Nc1ccc(-c2cnc3nc2NCCCNS(=O)(=O)c2cccc(c2)N3)cc1)C1(c2cc(C(F)(F)F)ccc2F)CC1 [Example 12, 1-(2-Fluoro-5-trifluoromethyl-phenyl)-cyclopropane-carboxylic acid [4-(13,13-dioxo-13λ^6-thia-2,4,8,12,19-pentaaza-tricyclo[12.3.1.1^3,7]-nonadeca-1(18),3(19),4,6,14,16-hexaen-6-yl)-phenyl]-amide]	>20	>20
COc1ccc(C2(C(=O)Nc3ccc(-c4cnc5nc4NCCCNS(=O)(=O)c4cccc(c4)N5)cc3)CC2)cc1 [Example 4, 1-(4-Methoxy-phenyl)-cyclopropane-carboxylic acid [4-(13,13-dioxo-13λ^6-thia-2,4,8,12,19-pentaaza-tricyclo[12.3.1.1^3,7]-nonadeca-1(18),3(19),4,6,14,16-hexaen-6-yl)-phenyl]-amide]	>20	>20
O=C(Nc1ccc(-c2cnc3nc2NCCCNS(=O)(=O)c2cccc(c2)N3)cc1)C1(c2cccc(C(F)(F)F)c2)CC1 [Example 10, 1-(3-Trifluoromethyl-phenyl)-cyclopropane-carboxylic acid [4-(13,13-dioxo-13λ^6-thia-2,4,8,12,19-pentaaza-tricyclo[12.3.1.1^3,7]nonadeca-1(18),3(19),4,6,14,16-hexaen-6-yl)-phenyl]-amide]	>20	>20
Cc1ccccc1C1(C(=O)Nc2ccc(-c3cnc4nc3NCCCNS(=O)(=O)c3cccc(c3)N4)cc2)CC1 [Example 2, 1-o-Tolyl-cyclopropane-arboxylic acid [4-(13,13-dioxo-13λ^6-thia-2,4,8,12,19-pentaaza-tricyclo[12.3.1.1^3,7]nonadeca-1(18),3(19),4,6,14,16-hexaen-6-yl)-phenyl]-amide]	>20	>20
O=C(Nc1ccc(-c2cnc3nc2NCCCNS(=O)(=O)c2cccc(c2)N3)cc1)C1(c2ccc(F)cc2)CC1 [Example 9, 1-(4-Fluoro-phenyl)-cyclopropane-carboxylic acid [4-(13,13-dioxo-13λ^6-thia-2,4,8,12,19-pentaaza-tricyclo[12.3.1.1^3.7]nonadeca-1(18),3(19),4,6,14,16-hexaen-6-yl)-phenyl]-amide]	>20	>20
O=C(Nc1ccc(-c2cnc3nc2NCCCNS(=O)(=O)c2cccc(c2)N3)cc1)C1(c2ccc(C(F)(F)F)cc2)CC1 [Example 11, 1-(4-Trifluoromethyl-phenyl)-cyclopropane-carboxylic acid [4-(13,13-dioxo-13λ^6-thia-2,4,8,12,19-pentaaza-tricyclo[12.3.1.1^3,7]nonadeca-1(18),3(19),4,6,14,16-hexaen-6-yl)-phenyl]-amide]	>20	>20
O=C(Nc1ccc(-c2cnc3nc2NCCCNS(=O)(=O)c2cccc(c2)N3)cc1)C1(c2ccccc2F)CC1 [Example 7, 1-(2-Fluoro-phenyl)-cyclopropane-carboxylic acid [4-(13,13-dioxo-13λ^6-thia-2,4,8,12,19-pentaaza-tricyclo[12.3.1.1^3,7]nonadeca-1(18),3(19),4,6,14,16-hexaen-6-yl)-phenyl]-amide]	>20	>20
O=C(Nc1ccc(-c2cnc3nc2NCCCNS(=O)(=O)c2cccc(c2)N3)cc1)C1(c2ccc(Cl)cc2)CC1 [Example 6, 1-(4-Chloro-phenyl)-cyclopropane-carboxylic acid [4-(13,13-dioxo-13λ^6-thia-2,4,8,12,19-pentaaza-tricyclo[12.3.1.1^3,7]-nonadeca-1(18),3(19),4,6,14,16-hexaen-6-yl)-phenyl]-amide]	>20	>20
O=C(Nc1ccc(-c2cnc3nc2NCCCNS(=O)(=O)c2cccc(c2)N3)cc1)C1(c2cccc(Cl)c2)CC1 [Example 5, 1-(3-Chloro-phenyl)-cyclopropane-arboxylic acid [4-(13,13-dioxo-13λ^6-thia-2,4,8,12,19-pentaaza-tricyclo[12.3.1.1^3,7]-nadeca-1(18),3(19),4,6,14,16-hexaen-6-yl)-phenyl]-amide]	>20	>20
